Assay results taken from patent US20120053189A1, “BTK INHIBITORS FOR THE TREATMENT OF IMMUNE MEDIATED CONDITIONS” (Pharmacyclics, Inc., priority 2010, published 2012).
“Also recorded” adds a separate entry of the source. Read-outs that look alike come from different tables or passages of the source.

Assays:
[1] = system: murine collagen-induced arthritis (CIA) model; assay: murine collagen-induced arthritis (CIA) model; type: in vivo, mice; details: for inflammatory synovitis, pannus formation, synovial fluid cytokines, cartilage damage and bone erosion: preventive and established murine CIA models
Protocol: Male mice 7 weeks of age were purchased from Harlan Laboratories, and acclimated for a minimum of 3 days. Mice were immunized on Day 0 with 150 μg of bovine collagen II (Chondrex Inc) in CFA (Sigma), and boosted with 100 μg of bovine collagen II in IFA on day 21. Fore and hind paws of mice were scored daily with a clinical scoring system using the following criteria:
0=normal 1=1 hind or fore paw joint affected • with minimal diffuse swelling and erythema (redness of the skin due to congestion of the capillaries)
2=2 hind or fore paw joints affected • with minimal diffuse swelling and erythema (redness of the skin due to congestion of the capillaries)
3=3 hind or fore paw joints affected • with minimal diffuse swelling and erythema (redness of the skin due to congestion of the capillaries)
4=minimum of 4 joints affected • marked diffuse swelling and erythema (redness of the skin due to congestion of the capillaries)
5=minimum entire paw, • unable to flex (Severe diffuse swelling and erythema redness of the skin due to congestion of the capillaries
Mice were enrolled randomly into treatment groups when a minimum mean paw score of 1.0 was established. The treatments started on the day of enrollment and continued for 12 days. Clinical scores were monitored daily for each animal in the treatment groups.

[2] = biological target: JAK1 (Homo sapiens, UniProt P23458); assay: kinase selectivity, JAK1; type: biochemical
[3] = system: murine collagen-antibody-induced arthritis model (CAIA model); assay: murine collagen-antibody-induced arthritis model (CAIA model); type: in vivo, DBA/1 mice; details: for dose that completely suppressed the development of arthritis: mouse, in vivo
Protocol: DBA/1 mice were injected intravenously with 2 mg of Arthrogen-CIA 5 mouse anti-bovine collagen (Chondrex) on day 0. Three days later, these mice were injected IP with 50 μg of LPS.
Mice were monitored for clinical symptoms daily with the criteria below.
0=normal 1=1 hind or fore paw joint affected 2=2 hind or fore paw joints affected 3=3 hind or fore paw joints affected 4=moderate (erythema and moderate swelling, or =4 digit joints affected) 5=severe (diffuse erythema and severe swelling entire paw, unable to flex digits)

[4] = biological target: VEGFR2 (Homo sapiens, UniProt P35968); assay: kinase selectivity, VEGFR2; type: biochemical
Sequence of VEGFR2 (P35968 20-1356, species assumed): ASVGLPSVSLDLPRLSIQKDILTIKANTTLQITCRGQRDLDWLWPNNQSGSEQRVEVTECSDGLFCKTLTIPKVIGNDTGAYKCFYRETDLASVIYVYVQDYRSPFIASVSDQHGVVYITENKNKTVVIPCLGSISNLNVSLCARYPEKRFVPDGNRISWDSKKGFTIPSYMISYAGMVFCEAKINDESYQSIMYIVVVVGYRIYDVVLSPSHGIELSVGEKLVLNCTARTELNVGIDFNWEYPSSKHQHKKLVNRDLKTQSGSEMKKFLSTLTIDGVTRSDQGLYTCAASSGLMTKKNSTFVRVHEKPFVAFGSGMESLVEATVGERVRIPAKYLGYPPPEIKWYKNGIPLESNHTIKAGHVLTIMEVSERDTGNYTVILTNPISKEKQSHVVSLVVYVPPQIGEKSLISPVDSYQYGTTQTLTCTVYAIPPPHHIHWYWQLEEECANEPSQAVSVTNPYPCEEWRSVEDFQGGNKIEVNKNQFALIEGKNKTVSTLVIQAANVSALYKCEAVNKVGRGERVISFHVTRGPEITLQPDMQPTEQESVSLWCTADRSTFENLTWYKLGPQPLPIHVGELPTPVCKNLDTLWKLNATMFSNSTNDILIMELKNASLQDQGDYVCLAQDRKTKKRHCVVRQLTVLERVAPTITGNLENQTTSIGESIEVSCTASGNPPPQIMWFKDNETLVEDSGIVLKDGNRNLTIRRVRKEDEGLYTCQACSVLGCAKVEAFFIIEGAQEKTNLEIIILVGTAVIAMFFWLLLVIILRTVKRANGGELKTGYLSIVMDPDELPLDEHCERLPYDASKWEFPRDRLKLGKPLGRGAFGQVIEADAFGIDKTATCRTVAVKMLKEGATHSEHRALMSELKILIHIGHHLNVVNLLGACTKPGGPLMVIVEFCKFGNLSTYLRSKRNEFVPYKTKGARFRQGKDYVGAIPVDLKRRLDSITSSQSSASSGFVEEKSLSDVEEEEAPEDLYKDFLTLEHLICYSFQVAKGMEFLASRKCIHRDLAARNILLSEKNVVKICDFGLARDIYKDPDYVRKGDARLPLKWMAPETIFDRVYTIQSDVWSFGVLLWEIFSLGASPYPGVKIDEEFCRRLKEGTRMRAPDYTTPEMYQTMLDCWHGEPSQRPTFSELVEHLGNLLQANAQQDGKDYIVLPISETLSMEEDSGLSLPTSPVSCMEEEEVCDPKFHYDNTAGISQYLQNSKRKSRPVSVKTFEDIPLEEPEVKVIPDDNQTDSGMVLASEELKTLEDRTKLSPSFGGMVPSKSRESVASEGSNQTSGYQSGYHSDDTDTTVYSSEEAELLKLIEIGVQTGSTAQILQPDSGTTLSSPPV

[5] = system: RAW264.7 cells; assay: IgG mediated phagocytosis of Zymosan particles; type: cell-based, murine; details: IgG opsonized Zymosan particles, RAW cells
Protocol: Prelabeled Zymosan particles were first opsonized with mouse IgG at 37 C for 30 min, and then centrifuged down and washed several times with PBS. The Zymosan particles are the resuspended in PBS.

[6] = system: human monocytes; assay: human monocyte cytokine release assay (IgG stimulation); type: cell-based; details: for release of IL-1β from human monocytes following FcγR stimulation with IgG: FIG. 2
Protocol: Human monocytes were isolated from Ficoll-gradient purified PBMC from healthy human volunteers using negative selection with EasySep (StemCells) magnetic beads. CD14+monocytes were then stimulated with IFN-gamma for 6 days, and then 2×10^6 cells were plated onto 10 μg/ml of human IgG (R&D Biosystems) coated onto Immulon 4 ELISA plates. […] Supernatants were collected from the plates and cytokines levels were determined with ELISA kits.

[7] = system: CD20+ B cells; assay: B cell viability; type: cell-based, human; details: concentrations below 10 μM
Protocol: (§1) CD20+ B and CD3+ T cells were purified by negative selection (RosetteSep, >90% purity) from Buffy coat PBMC and viably frozen in 10% DMSO. Cells were thawed at 37° C. and maintained in growth media (RPMI media containing 10% FCS). B cells were stimulated with goat anti-human IgM F(ab′)2 (10 ug/ml, Invitrogen) and T cells were stimulated with anti-CD3/CD28 coated beads (Dynabeads) at a 1:1 bead/cell ratio. Cells were stained with PE-CD69 (BD) and analyzed by flow cytometry, gating on viable lymphocytes. […] For washout experiments, cells were rinsed 3× in 10 volumes of growth media, a protocol that was confirmed to completely wash away inhibition of BCR signaling by a reversible Btk inhibitor.

[8] = system: CD3+ T cells; assay: T cell viability; type: cell-based, human; details: concentrations below 10 μM
Protocol: as §1

[9] = hepatic extraction ratio in rats; type: in vivo; details: oral, 1-(AUC systemic÷AUC portal)
Protocol: The analyses were performed using nominal sample times and a noncompartmental method with uniform weighting. Pharmacokinetic parameter estimates included terminal half-life and area under the concentration-time curve (AUC). Extraction ratios were calculated as 1-(AUC systemic÷AUC portal).

[10] = system: human whole blood basophils; assay: whole blood basophil assay, CD63 after anti-IgE stimulation; type: cell-based; details: for EC50: human whole blood basophils, read-out: EC50 of inhibition of anti-IgE mediated upregulation of CD63
Protocol: Fresh whole blood was collected on the day of the experiment from a healthy volunteer. Whole blood is stimulated with 10 ng/mL of rhIL-3 (Invitrogen) and […] of anti-IgE (Beckman Coulter) in Basophil Stimulation Buffer (20 mM HEPES pH 7.4, 125 mM NaCl, 5 mM KCl, 2.5 mM CaCl2, 1 mM MgCl2, 0.5% Glucose, 0.1% BSA) at 37° C. for 15 min. The reaction was terminated by the addition of EDTA. The stimulated whole blood was then stained with a fluorescent three-antibody cocktail (FITC-Anti-CD63/PerCP-Anti-HLA-DR/PE-Anti-CD123) (BD Biosciences) at room temperature in the dark for 15 min. Following staining, blood was treated with 1×FACS Lysing solution (BD Biosciences) for 15 minutes to lyse the RBC. The lysed RBC supernatant was removed following centrifugation for […]. The cell pellet was resuspended and fixed in 0.5% paraformaldehyde in PBS. The percentage of basophil degranulation was determined by the % of CD63 cells that were CD123 positive and HLA-DR negative.

[11] = system: CD20+ B cells; assay: human B cell activation following BCR stimulation by anti-IgM (CD69); type: cell-based; details: read-out: EC50 of inhibition of human B cell activation
Protocol: as §1

[12] = biological target: Abl (Homo sapiens, UniProt P00519); assay: kinase selectivity, Abl; type: biochemical
Sequence of Abl (P00519 whole entry, species assumed): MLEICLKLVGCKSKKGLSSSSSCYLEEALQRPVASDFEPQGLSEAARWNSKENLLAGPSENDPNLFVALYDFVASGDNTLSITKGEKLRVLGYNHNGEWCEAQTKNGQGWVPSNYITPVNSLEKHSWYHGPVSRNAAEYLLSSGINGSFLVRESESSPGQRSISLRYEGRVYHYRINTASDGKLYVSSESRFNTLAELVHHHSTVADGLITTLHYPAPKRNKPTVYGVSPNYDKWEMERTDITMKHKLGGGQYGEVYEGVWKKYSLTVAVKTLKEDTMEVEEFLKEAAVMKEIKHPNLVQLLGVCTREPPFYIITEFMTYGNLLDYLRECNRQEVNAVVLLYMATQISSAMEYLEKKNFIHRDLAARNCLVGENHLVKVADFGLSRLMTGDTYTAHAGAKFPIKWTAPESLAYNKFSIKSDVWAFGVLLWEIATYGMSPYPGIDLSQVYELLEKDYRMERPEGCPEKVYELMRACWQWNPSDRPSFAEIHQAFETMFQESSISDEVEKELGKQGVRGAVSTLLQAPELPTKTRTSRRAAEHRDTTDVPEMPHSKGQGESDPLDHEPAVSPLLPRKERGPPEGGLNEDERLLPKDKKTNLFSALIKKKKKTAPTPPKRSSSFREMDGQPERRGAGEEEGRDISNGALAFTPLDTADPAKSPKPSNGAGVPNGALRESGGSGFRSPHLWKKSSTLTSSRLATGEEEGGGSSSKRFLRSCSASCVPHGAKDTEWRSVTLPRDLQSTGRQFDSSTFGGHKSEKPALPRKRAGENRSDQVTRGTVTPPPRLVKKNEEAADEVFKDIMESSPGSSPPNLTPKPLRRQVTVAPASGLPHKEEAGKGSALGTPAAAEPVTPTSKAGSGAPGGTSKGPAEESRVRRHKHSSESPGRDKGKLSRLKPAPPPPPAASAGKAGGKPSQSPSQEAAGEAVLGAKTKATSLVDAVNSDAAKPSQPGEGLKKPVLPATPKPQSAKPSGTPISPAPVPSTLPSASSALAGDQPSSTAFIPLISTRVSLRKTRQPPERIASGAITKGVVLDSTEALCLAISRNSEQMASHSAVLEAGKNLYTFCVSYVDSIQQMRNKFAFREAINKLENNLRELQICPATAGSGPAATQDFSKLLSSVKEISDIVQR

[13] = biological target: T1, JAK3 (Homo sapiens, UniProt P52333); assay: kinase selectivity, JAK3; type: biochemical
T1 sequence (P52333 1-1124): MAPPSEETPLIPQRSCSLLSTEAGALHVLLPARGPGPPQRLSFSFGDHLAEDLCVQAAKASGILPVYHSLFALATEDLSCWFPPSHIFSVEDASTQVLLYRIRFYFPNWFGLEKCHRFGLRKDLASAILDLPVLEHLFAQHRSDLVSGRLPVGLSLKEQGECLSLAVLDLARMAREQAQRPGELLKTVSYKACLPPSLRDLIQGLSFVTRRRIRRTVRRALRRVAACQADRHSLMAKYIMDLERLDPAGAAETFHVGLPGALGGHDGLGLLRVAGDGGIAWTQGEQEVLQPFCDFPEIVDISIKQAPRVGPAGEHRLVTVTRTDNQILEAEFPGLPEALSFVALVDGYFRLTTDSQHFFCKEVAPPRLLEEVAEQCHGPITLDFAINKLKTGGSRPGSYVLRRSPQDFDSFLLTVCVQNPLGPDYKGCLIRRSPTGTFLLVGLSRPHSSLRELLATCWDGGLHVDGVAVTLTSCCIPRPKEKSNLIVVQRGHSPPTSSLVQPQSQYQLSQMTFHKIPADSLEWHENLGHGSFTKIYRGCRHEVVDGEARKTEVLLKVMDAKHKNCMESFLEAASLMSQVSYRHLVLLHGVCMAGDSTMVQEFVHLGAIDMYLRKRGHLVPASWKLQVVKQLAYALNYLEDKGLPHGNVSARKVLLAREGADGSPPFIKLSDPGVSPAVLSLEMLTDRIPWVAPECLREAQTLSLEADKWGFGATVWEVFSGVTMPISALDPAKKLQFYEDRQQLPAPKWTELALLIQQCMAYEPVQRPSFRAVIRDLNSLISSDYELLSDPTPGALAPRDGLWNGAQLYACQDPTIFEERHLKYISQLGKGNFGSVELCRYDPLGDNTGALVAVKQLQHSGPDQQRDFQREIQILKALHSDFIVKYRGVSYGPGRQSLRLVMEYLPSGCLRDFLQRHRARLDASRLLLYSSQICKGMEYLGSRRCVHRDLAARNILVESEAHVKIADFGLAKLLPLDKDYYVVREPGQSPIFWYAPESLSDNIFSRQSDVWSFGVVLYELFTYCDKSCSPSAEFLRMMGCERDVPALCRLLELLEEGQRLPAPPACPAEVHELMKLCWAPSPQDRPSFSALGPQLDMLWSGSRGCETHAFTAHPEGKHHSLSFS

[14] = in vivo; details: CDIGS, rat
[15] = biological target: Btk (Homo sapiens, UniProt Q06187); assay: Btk biochemical assays
Sequence of Btk (Q06187 whole entry): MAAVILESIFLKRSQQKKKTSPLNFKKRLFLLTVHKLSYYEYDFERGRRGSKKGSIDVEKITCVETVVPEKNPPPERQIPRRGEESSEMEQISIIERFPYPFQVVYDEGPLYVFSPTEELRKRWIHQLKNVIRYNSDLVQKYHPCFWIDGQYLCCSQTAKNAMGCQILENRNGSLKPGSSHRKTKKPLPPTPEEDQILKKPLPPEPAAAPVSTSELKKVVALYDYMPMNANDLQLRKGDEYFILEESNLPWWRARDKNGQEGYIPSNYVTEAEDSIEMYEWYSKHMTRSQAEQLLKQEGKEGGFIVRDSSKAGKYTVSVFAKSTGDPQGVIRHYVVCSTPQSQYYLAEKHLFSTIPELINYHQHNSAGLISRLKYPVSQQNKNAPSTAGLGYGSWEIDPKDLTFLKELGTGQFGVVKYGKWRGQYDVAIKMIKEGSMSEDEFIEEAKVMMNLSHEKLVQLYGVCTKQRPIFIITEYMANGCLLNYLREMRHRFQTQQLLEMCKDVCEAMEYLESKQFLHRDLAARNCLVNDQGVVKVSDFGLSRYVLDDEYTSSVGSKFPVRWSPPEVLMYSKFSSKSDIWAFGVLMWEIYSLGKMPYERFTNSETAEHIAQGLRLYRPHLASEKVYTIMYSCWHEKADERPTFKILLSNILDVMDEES

[16] = in vitro; details: human, liver microsomes
[17] = biological target: EGFR (Homo sapiens, UniProt P00533); assay: kinase selectivity, EGFR; type: biochemical
[18] = biological target: JAK2 (Homo sapiens, UniProt O60674); assay: kinase selectivity, JAK2; type: biochemical
Sequence of JAK2 (O60674 whole entry): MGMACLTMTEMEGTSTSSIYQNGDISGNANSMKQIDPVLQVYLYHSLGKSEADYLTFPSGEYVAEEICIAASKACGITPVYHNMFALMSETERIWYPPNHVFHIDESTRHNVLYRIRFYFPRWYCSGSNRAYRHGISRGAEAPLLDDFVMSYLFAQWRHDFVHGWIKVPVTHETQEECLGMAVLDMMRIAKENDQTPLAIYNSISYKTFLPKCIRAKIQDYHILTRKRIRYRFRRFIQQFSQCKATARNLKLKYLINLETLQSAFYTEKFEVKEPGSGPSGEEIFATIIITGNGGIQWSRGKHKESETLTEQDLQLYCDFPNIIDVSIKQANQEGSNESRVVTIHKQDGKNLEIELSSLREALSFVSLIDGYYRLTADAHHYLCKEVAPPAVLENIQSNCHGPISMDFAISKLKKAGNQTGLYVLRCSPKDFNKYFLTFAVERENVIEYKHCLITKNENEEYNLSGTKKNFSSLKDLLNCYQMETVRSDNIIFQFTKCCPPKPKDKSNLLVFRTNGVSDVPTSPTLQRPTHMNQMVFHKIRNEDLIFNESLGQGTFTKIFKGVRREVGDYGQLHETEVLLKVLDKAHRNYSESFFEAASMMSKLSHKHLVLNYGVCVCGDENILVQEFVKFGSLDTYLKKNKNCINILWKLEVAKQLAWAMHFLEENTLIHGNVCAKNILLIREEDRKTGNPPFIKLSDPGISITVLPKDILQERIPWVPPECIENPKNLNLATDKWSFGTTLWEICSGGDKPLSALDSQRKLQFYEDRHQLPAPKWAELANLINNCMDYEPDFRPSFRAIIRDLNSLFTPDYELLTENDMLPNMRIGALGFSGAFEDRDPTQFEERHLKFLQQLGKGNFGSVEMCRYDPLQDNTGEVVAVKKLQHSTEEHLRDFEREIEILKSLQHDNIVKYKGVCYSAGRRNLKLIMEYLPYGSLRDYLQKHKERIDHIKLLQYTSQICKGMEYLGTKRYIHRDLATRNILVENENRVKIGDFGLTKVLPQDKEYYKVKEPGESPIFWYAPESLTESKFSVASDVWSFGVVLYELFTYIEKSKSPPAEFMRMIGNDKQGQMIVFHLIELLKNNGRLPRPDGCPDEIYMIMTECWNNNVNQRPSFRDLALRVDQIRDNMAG

[19] = interspecies scaling of clearance and estimation of efficacious human daily dosage; details: FIG. 7
Protocol: There is an excellent scaling of clearance (dose/AUC) within mice, rats and dogs, and therefore exposure to dose projection in humans is likely precise. Based on interspecies scaling of clearance, the human BW normalized CL/F was determined to be about 2.53 (FIG. 7).

In the case of `CN(Cc1cnc2nc(N)nc(N)c2n1)c1ccc(C(=O)N[C@@H](CCC(=O)O)C(=O)O)cc1` [methotrexate, reference compound], the “clinical arthritis, disease course” value ([1]; 1.5 mg/kg/day) is reported as “stabilized disease without further progression of arthritic swelling”.
For `CN(C)C/C=C/C(=O)N1CC[C@@H](n2nc(-c3ccc(Oc4ccccc4)cc3)c3c(N)ncnc32)C1` [Compound 1], the “inhibition of JAK1” value [2] was “no significant inhibition”, the clinical arthritis ([3]; 0.8, 1.6 and 3.2 mg/kg/day, day 0 to day 14) was “completely prevented and suppressed clinical arthritis” and the “dose that completely suppressed the development of arthritis” value [3] was 0.8 mg/kg/day. For the same compound, the “inhibition of VEGFR2” value [4] was “no significant inhibition”, the “time after drug administration at which reversal of clinical arthritis was observed” value ([1]; 1.6 and 3.2 mg/kg/day) was 1 days and the clinical arthritic symptoms ([1]; 1.6 and 3.2 mg/kg/day, treatment for 12 days) was “reversed clinical arthritic symptoms”. The arthritic clinical scores ([1]; FIG. 4) was “reversal of arthritic clinical scores”, the “EC50 of inhibition of overt manifestations of arthritis (clinical arthritic symptoms)” value ([1]; mice, CIA) was 0.61 mg/kg/day and the “inflammatory synovitis, pannus formation, synovial fluid cytokines, cartilage damage and bone erosion” value [1] was “dose-dependently inhibited”. For the same compound, the “concentration up to which IgG-mediated phagocytosis was not inhibited” value [5] was > 10,000 nM, the “concentration inhibiting cytokine release from human monocytes” value [6] was 20 to 100 nM and the “release of IL-1β from human monocytes following FcγR stimulation with IgG” value ([6]; listed as (E)-1-(R)-3-(4-amino-3-(4-phenoxyphenyl)-1H-pyrazolo[3,4-d]pyrimidin-1-yl)pyrro) was “suppressed the release of IL-1b; also recorded: monocyte release inhibition of IL-1β”. The B cell viability [7] was “did not decrease”, the T cell viability [8] was “did not decrease” and the hepatic extraction ratio [9] was 0.289. The “basophil activation following anti-IgE stimulation” value ([10]; FIG. 1) was “basophil activation inhibition”, the EC50 ([10]; listed as (E)-1-4R)-3-(4-amino-3-(4-phenoxyphenyl)-1H-pyrazolo[3,4-d]pyrimidin-1-yl)pyrrol) was roughly 92 nM and the EC50 [11] was 2 nM. For the same compound, the “inhibition of Abl” value [12] was “no significant inhibition”, the “inhibition of JAK3” value [13] was “no significant inhibition” and the bioavailability ([14]; in vivo) was 24.7%. For the same compound, the IC50 [15] was 1 to 2 nM, the “selectivity as inhibitor of Btk” value ([15]; compared with Compound 2 or dasatinib) was “more selective inhibitor of Btk” and the half-life [16] was 19.2 min. For the same compound, the “inhibition of EGFR” value [17] was “no significant inhibition”, the “inhibition of JAK2” value [18] was “no significant inhibition” and the “allometric scaling of CL/F vs. Body Weight in multiple species” value [19] was “linear”.
In the case of `C=CC(=O)N1CCC[C@@H](n2nc(-c3ccc(Oc4ccccc4)cc3)c3c(N)ncnc32)C1` [Compound 2, reference compound], the “dose that completely suppressed the development of arthritis” value [3] is reported as 6.25 mg/kg/day, the “inflammatory synovitis, pannus formation, synovial fluid cytokines, cartilage damage and bone erosion” value [1] is reported as “dose-dependently inhibited” and the “release of IL-1β from human monocytes following FcγR stimulation with IgG” value ([6]; listed as (R)-1-(3-(4-amino-3-(4-phenoxyphenyl)-1H-pyrazolo[3,4-d]pyrimidin-1-yl)piperidin)) is reported as “suppressed the release of IL-1b; also recorded: monocyte release inhibition of IL-1β”. For the same compound, the B cell viability [7] was “did not decrease”, the T cell viability [8] was “did not decrease” and the EC50 [10] was 20 to 100 nM. It also gave an EC50 [11] of 2 nM and a bioavailability ([14]; plasma, oral) of 22.8%.
`C[C@@H]1C[C@H]2[C@@H]3CCC4=CC(=O)C=C[C@]4(C)[C@@]3(F)[C@@H](O)C[C@]2(C)[C@@]1(O)C(=O)CO` [dexamethasone, reference compound] gave an average clinical scores ([3]; 0.2 mg/kg, day 14) of 1.
